Laboratory results from patent publication US7169818B2, “Lysophosphatidic acid receptor agonists and antagonists” (University of Virginia Patent Foundation, priority 2000, dated 2007).
Entries after “also recorded” stand apart in the source; their conditions may differ.

How the values were obtained:
human LPA2 [1] = target: T1, human LPA2 (Homo sapiens, UniProt Q9HBW0); assay: GTP[γ35S] binding, LPA2-transfected HEK293T cell membranes; format: biochemical; set-up: expressed in transfected cells; host or cells: HEK293T (transient); settings: for EC50: agonist activity, read-out: LP A2 EC50; for antagonist activity at LPA2: block of LPA-induced GTP[γ35S] binding
T1 sequence (Q9HBW0 whole entry): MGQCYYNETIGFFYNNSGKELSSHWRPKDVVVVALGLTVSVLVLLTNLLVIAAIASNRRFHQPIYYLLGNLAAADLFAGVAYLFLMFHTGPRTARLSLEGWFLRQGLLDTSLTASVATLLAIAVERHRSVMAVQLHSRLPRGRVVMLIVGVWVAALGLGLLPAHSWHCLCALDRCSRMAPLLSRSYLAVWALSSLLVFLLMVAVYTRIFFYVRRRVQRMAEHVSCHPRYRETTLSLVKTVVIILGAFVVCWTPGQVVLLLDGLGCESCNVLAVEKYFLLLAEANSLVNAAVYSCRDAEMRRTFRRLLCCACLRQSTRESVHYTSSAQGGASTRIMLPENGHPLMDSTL
Description: (§1) The appropriate receptor plasmid DNA (encoding mouse LPA1, human LPA2 or human LPA3) was mixed with equal amounts of expression plasmids (pcDNA3) encoding a mutated (C351F) rat Gi2a, cow β1, and γ2 proteins and these DNAs were used to transfect monolayers of HEK293T cells (where ‘T’ indicates expression of the SV-40 virus large T antigen) using the calcium phosphate precipitate method. After about 60 hours, cells were harvested, membranes were prepared, aliquoted and stored at −70° C. until use.
(§2) The GTP[35 γS] assay was performed as described by us previously. Membranes containing 5 ug of protein were incubated in 0.1 ml GTP-binding buffer (in mM: HEPES 50, NaCl 100, MgCl2 10, pH7.5) containing […], […], 0.1 nM GTP[35 γS] (1200 Ci/mmol), and indicated lipid(s) for 30 minutes at 30° C. Samples were analyzed for membrane-bound radionuclide using a Brandel Cell Harvester (Gaithersburg, Md.).
(§3) Membranes prepared from these cells are used to measure GTPγ[^35S] binding as a function of test compound concentration. The resulting dose-response curves provide relative potency (EC50) and efficacy (Emax) for the test compounds.

human LPA3 [2] = target: T2, human LPA3 (Homo sapiens, UniProt Q9UBY5); assay: GTP[γ35S] binding, LPA3-transfected HEK293T cell membranes; format: biochemical; set-up: expressed in transfected cells; host or cells: HEK293T (transient); settings: for EC50: agonist activity, read-out: LP A3 EC50; for LP A3 Emax: efficacy compared to LPA (LPA = 100)
T2 sequence (Q9UBY5 1-353): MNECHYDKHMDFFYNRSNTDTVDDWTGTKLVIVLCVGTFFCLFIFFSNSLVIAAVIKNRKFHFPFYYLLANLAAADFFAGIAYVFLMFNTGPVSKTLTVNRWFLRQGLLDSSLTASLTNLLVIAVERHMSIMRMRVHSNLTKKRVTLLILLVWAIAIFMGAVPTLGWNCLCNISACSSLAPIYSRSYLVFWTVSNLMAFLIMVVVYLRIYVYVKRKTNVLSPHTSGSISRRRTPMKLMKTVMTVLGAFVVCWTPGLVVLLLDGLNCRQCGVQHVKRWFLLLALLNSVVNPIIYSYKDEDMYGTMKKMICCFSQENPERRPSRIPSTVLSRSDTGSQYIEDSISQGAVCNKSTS
Description: as §1, §2
(§4) The X-intercept of the linear transformation is equal to the inverse log of the KI.
as §3

LPP3 (PAP2b) = target: T3, LPP3 (PAP2b) (Homo sapiens, UniProt O14495); assay: LPP inhibition, competition with [32P]LPA; format: biochemical; settings: for rank order of inhibition of the three LPPs: LPP1 (PAP2a), LPP2 (PAP2c), LPP3 (PAP2b)
T3 sequence (O14495 1-311): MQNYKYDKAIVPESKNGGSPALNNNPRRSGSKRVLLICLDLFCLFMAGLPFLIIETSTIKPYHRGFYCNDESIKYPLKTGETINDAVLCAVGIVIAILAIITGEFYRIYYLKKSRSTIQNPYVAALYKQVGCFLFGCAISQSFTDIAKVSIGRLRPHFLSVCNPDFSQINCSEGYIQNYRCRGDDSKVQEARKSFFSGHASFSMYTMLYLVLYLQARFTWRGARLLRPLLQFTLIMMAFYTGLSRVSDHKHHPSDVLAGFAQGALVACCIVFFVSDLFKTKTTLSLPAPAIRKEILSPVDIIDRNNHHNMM
Description: NOHPP was also tested for activity at the three cloned LPPs. Although the phosphonate head group eliminates the possibility of NOHPP acting as a substrate, it is possible that the compound could be a competitive inhibitor.

mouse LPA1 [3] = target: T4, mouse LPA1 (Mus musculus, UniProt P61793); assay: GTP[γ35S] binding, LPA1-transfected HEK293T (or RH7777) cell membranes; format: biochemical; set-up: expressed in transfected cells; host or cells: HEK293T (transient); for part of the results RH7777 membranes; settings: for antagonist activity at LPA1: block of LPA-induced GTP[γ35S] binding
T4 sequence (P61793 whole entry): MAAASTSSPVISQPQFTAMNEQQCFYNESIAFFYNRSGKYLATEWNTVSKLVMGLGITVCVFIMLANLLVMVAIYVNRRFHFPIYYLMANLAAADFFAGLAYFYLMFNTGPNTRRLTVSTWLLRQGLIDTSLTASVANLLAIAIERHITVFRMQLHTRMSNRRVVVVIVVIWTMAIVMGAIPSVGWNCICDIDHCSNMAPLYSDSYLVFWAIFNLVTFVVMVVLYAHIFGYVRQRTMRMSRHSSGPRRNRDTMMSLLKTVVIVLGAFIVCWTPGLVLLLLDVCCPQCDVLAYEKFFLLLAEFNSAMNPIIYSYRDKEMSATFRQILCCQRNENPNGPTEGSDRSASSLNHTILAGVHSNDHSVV
Description: as §1, §2, §4, §3

human platelets [4] = settings: previously reported; cited from earlier work
Xenopus laevis ooctyes [5] = settings: previously reported; cited from earlier work
LPA receptors = assay: whole cell assays of calcium mobilization or inhibition of cAMP accumulation, agonist activity; format: cell-based
Description: (§5) Assays for cAMP accumulation were conducted on populations of 5×10^5 cells stimulated with […] in the presence of the phosphodiesterase inhibitor isomethylbutylxanthine (IBMX) for 15 minutes at 30° C. cAMP was measured by automated radioimmunoassay.
A FLIPR™ (Molecular Devices, Inc.) was used to measure intracellular calcium in A431 and HEK293T cells. A431 cells were seeded (˜50,000 cells/well) in 96-well clear bottom black microplates (Corning Costar Corp., Cambridge, Mass.) and left overnight in CO2 incubator at 37° C. HEK293T cells were treated likewise, but seeded onto poly D-lysine coated microplates (Becton Dickinson, Franklin Lakes, N.J.). A431 cells were dye-loaded with 4 μM Fluo-3 AM ester (Molecular Probes Inc., Eugene, Oreg.) in a loading buffer (1×HBSS buffer, pH 7.4, containing 20 mM HEPES, 0.1% BSA, and 2.5 mM probenecid) for 1 hour at 37° C. Cells were then washed four times with the loading buffer and exposed in the FLIPR™ to sets of compounds. HEK293T cells were loaded with 2 μM Fluo-4 AM ester (Molecular Probes Inc., Eugene, Oreg.) in the same loading buffer without probenecid for 30 minutes and washed four times before being exposed to compounds in the FLIPR™. In all cases, each concentration of each compound was tested in at least quintuplicate.

human LPA1 = target: T5, human LPA1 (Homo sapiens, UniProt Q92633); assay: GTP[γ35S] binding, baculovirus-infected insect Sf9 cell membrane preparation; format: biochemical
T5 construct: expressed in transfected cells; host or cells: Sf9 insect cells, recombinant baculovirus
T5 sequence (Q92633 whole entry): as the sequence (P61793 whole entry) above, with A4I, S8I, Q22P, Y40H, V61I, D193E, H194N, V269I, N331S, N335T counted along it
Description: The same activity was determined with human LPA1 using a recombinant baculovirus-infected insect Sf9 cell membrane preparation.

[6] = test system: renal injury following ischemia-reperfusion; assay: renal ischemia-reperfusion model; format: in vivo, C57BL6 mice; settings: 1 mg/kg/2 hr
Description: C57BL6 mice (20 gm, 8 wks of age) were used for all studies. The surgical protocol of renal IR has been previously described (Okusa et al., 1999. Am J. Physiol. (Renal Physiol.) 277: F404–412; Okusa, et al., 2000 Am. J. Physiol. (Renal Physiol.) 279; F809–F818, and Okusa et al., 2001 Kidney Int. 59:2114–2125). For the injury protocol, bilateral flank incisions were made under anesthesia with a regimen that consists of ketamine (100 mg/kg, ip.), xylazine (10 mg/kg, ip.) and acepromazine (1 mg/kg, im.). Renal pedicles were exposed and cross-clamped for 27–32 min. Kidneys were examined for immediate reperfusion following clamp removal. Wounds were closed and mice were returned to cages. […] The mice were sacrificed and the kidneys harvested at 1, 4, 8, 24, 48 hrs, 5 and 7 days. […] Mice were sacrificed following 24 hrs of reperfusion and plasma was obtained for BUN and creatinine.

mouse LPA1 [7] = target: T4, mouse LPA1; assay: cAMP accumulation in RH7777 cells stably expressing LPA1; format: cell-based; set-up: expressed in transfected cells
Description: as §5
Rat hepatoma RH7777 cell monolayers were transfected with the mLPAI plasmid DNA using the calcium phosphate precipitate method and clonal populations expressing the neomycin phosphotransferase gene were selected by addition of geneticin (G418) to the culture media. The RH7777 cells were grown in monolayers at 37° C. in a 5% CO02/95% air atmosphere in growth media consisting of: 90% MEM, 10% fetal bovine serum, 2 mM glutamine and 1 mM sodium pyruvate.
(§6) wls-b8L and the other phosphonates were also tested also for activity in three whole cell assays. […] Finally, the activity of wls-b8L in activating a chloride conductance in Xenopus laevis ooctyes was measured.

human platelets [8] = assay: platelet aggregation; format: cell-based; settings: concentrations up to 10 micromolar
Xenopus laevis ooctyes [9] = assay: chloride conductance / depolarization in Xenopus oocytes, endogenous receptor; format: cell-based; settings: uninjected Xenopus oocytes
Description: as §6

human LPA3 [10] = target: T2, human LPA3; assay: chloride conductance in Xenopus oocytes injected with human LPA3 mRNA; format: cell-based; set-up: expressed in transfected cells; host or cells: Xenopus laevis oocytes, mRNA injection; settings: 10 μM applied to the oocyte surface
Description: as §6

human LPA2 [11] = target: T1, human LPA2; assay: chloride conductance in Xenopus oocytes injected with human LPA2 mRNA; format: cell-based; set-up: expressed in transfected cells; host or cells: Xenopus laevis oocytes, mRNA injection; settings: 10 μM applied to the oocyte surface
Description: as §6

[12] = efficacy compared to LPA (LPA = 100)

## 1-acyl, 2-hydroxyl-sn-glycerol-3-phosphate [LPA, reference compound]
Human LPA2 [1]; GTP[γ35S] binding
  EC50: 6.8 nM
Human LPA3 [2]; GTP[γ35S] binding
  EC50: 262 nM
Human LPA3 [2]
  LP A3 Emax: 100

## CCCCCCCC/C=C\CCCCCCCC(=O)NCCC(O)P(=O)(O)O (racemic) [NOHPP, (9Z)-N-(rac-3-hydroxy-3-phosphonopropyl)octadec-9-enamide]
LPP3 (PAP2b)
  rank order of inhibition of the three LPPs: LPP3>LPP1>>LPP2
LPP3 (PAP2b); listed as VPC12031
  rank order of inhibition of the three LPPs: markedly better at the PAP2b (LPP3) than PAP2a (LPP1) which in turn is better than PAP2c (LPP2)
LPP3 (PAP2b); NOHPP in competition with 50 nM [32P]LPA
  inhibition of LPP3: inhibited
Human LPA2 [1]; GTP[γ35S] binding
  agonist activity / efficacy relative to LPA at LPA2: as efficacious as; also recorded: fullly efficacious
  agonist potency relative to LPA at LPA2: somewhat less potent than; also recorded: about one log order less potent
Human LPA3 [2]; GTP[γ35S] binding
  agonist activity / efficacy relative to LPA at LPA3: far less efficacious; also recorded: little activity
  agonist potency relative to LPA at LPA3: distinctly less potent; also recorded: greater than two log orders less potent
Mouse LPA1 [3]; GTP[γ35S] binding
  agonist activity / efficacy relative to LPA at LPA1: as efficacious as; also recorded: fullly efficacious
  agonist potency relative to LPA at LPA1: somewhat less potent than; also recorded: about one log order less potent

## CCCCCCCCCCCCCCCC(=O)N[C@@H](COP(=O)(O)O)C(=O)O [NASPA, N-palmitoyl serine phosphate]
Human platelets [4]
  platelet aggregation (literature): antagonize
Xenopus laevis ooctyes [5]
  oocyte depolarization (literature): antagonize

## CCCCCCCCCCCCCCCC(=O)N[C@@H](CCCC)COP(=O)(O)O [PNPA, N-palmitoyl-norleucinol-1-phosphate]
Human platelets [4]
  platelet aggregation (literature): aggregates human platelets without regard to stereoselectivity

## CCCCCCCC/C=C\CCCCCCCC(=O)N[C@@H](COP(=O)(O)O)Cc1ccccc1 [VPC12084]
LPA receptors
  agonist activity in whole cell assays: appreciable agonist activity
Mouse LPA1 [3]
  antagonist activity at LPA1: did block LPA activity

## CCCCCCCC/C=C\CCCCCCCC(=O)N[C@H](C)COP(=O)(O)O [VPC12086]
Mouse LPA1 [3]; GTP[γ35S] binding
  agonist potency relative to LPA at LPA1: more potent than 1-oleoyl LPA; also recorded: more potent and efficacious than LPA

## CCCCCCCC/C=C\CCCCCCCC(=O)N[C@@H](CC)COP(=O)(O)O [VPC12115]
Human LPA2 [1]; GTP[γ35S] binding
  EC50: 4280 nM
Human LPA2 [1]; [12]
  LP A2 Emax: 85.6
Human LPA3 [2]; GTP[γ35S] binding
  EC50: 4980 nM
Human LPA3 [2]
  LP A3 Emax: 89.3
Mouse LPA1 [3]; agonist activity, GTP[γ35S] binding, read-out: LP A1 EC50
  EC50: 1580 nM
Mouse LPA1 [3]; [12]
  LP A1 Emax: 62.3

## CCCCCCCC/C=C\CCCCCCCC(=O)N[C@H](CN)COP(=O)(O)O [VPC12178]
Mouse LPA1 [3]; GTP[γ35S] binding
  agonist potency relative to LPA at LPA1: more potent than 1-oleoyl LPA

## CCCCCCCC/C=C\CCCCCCCC(=O)N[C@H](COP(=O)(O)O)Cc1ccc(OCc2ccccc2)cc1 [VPC12249]
Human LPA1
  antagonist activity at human LPA1: same activity
LPA receptors
  agonist activity in whole cell assays: completely devoid of agonist activity
[6]
  tissue preservation, H and E sections: marked degree of tissue preservation
Mouse LPA1 [7]; RH7777 cells stably expressing LPA1
  block of the inhibition of forskolin-induced increases in cAMP levels: inhibited
Human LPA2 [1]
  antagonist activity at LPA2: lack of antagonist activity
Human LPA3 [2]; block of LPA-induced GTP[γ35S] binding
  antagonist activity at LPA3: surmountable antagonist
Mouse LPA1 [3]
  antagonist activity at LPA1: surmountable antagonist

## CCCCCCCC/C=C\CCCCCCCC(=O)N[C@H](CO)COP(=O)(O)O [VPC31143]
Mouse LPA1 [3]; GTP[γ35S] binding
  agonist potency relative to LPA at LPA1: more potent than 1-oleoyl LPA

## CCCCCCCC/C=C\CCCCCCCC(=O)N[C@@H](COP(=O)(O)O)Cc1ccc(OCc2ccc(CCCCC)cc2)cc1 [VPC31162]
Human LPA2 [1]
  antagonist activity at LPA2: antagonist activity
Human LPA3 [2]; GTP[γ35S] binding
  agonist activity / efficacy relative to LPA at LPA3: agonist
Mouse LPA1 [3]; GTP[γ35S] binding
  agonist activity / efficacy relative to LPA at LPA1: agonist

## CCCCCCCC/C=C\CCCCCCCC(=O)NCCCP(=O)(O)O [wls-b8L, (9Z)-N-(3-phosphonopropyl)Octadec-9-enamide]
Human platelets [8]
  aggregation of human platelets: does not elicit aggregation
Xenopus laevis ooctyes [9]
  activation of chloride conductance, endogenous receptor: does not evoke this response
Mouse LPA1 [7]; concentration of 1 μM
  inhibition of cAMP accumulation (agonist efficacy): fully efficacious
Human LPA3 [10]
  activation of chloride conductance, human LPA3 mRNA injected: very modest response
Human LPA2 [11]
  activation of chloride conductance, human LPA2 mRNA injected: very modest response
Mouse LPA1 [3]; GTP[γ35S] binding
  receptor-type selectivity of agonist activity (LPA1 vs LPA2, LPA3): more potent and efficacious at LPA1 than at either LPA2 or LPA3; also recorded: distinctly more selective regarding its agonist activity at a single LPA receptor (LPA1)
